Positions of bridges follow the written chain, without caps; N, C: chain ends. No end group written: not given here.

This experiment has as its system M. smegmatis 607. Nature of the experiment: Anti-mycobacterial activity by paper disk method. In kind it is cell-based, Mycobacterium smegmatis. The settings on record: for Inhibition zone: paper disk (6 mm) containing 1 μg peptide on Middlebrook 7H9 agar spread with M. smegmatis 607 (approx. 1.5 × 10^8 CFU/ml), 37 °C, 48 hr, diameter of inhibitory zone, average from two independent experiments, '-' = no zone (activity lost); for Anti-mycobacterial activity compared with lariatin A (in words): M. smegmatis, paper disk method, 1 μg per disk. Here is the method: To gain insights into the structure-activity relationships of lariatin A, anti-mycobacterial activity of 20 lariatin variants against M. smegmatis was evaluated by paper disk method (Fig. 4). Among lariatin variants related to the macrolactam ring, the anti-mycobacterial activity of Tyr6 variant only was lost, while the replacement of Tyr6 with tryptophan and phenylalanine didn’t affect the anti-mycobacterial activity. […] Furthermore, Gly11 and Asn14 were closely involved in the anti-mycobacterial activity because of the loss of the activity in their variants. […] Thus, it was shown that the positively charged amino acid residue was favorable at the residue at position 17. Also, it was shown that the amino acid residue without bulky or branched side chains at the residues at positions 15, 16 and 18 contributed to the higher potency.
Figure 4 Anti-mycobacterial activity of lariatin variants. Anti-mycobacterial activities of lariatin variants were evaluated by a paper disk method. Value of the inhibition zone against M. smegmatis and relative activity in comparison with lariatin A were shown here. Bar color represents potency of each compound when the value of inhibition zone of lariatin A is set up at 100%: yellow, <50% activity; green, 50–120% activity; blue, >120% activity. Value of inhibition zone represents the average from two independent experiments. TEXT PRINTED IN THE PICTURE: Lariatin A: Inhibition zone (mm): 21.8 | S2A: Inhibition zone (mm): 20.4 | Q3A: Inhibition zone (mm): 16.3 | L4A: Inhibition zone (mm): 8.9 | V5A: Inhibition zone (mm): 11.3 | Y6A: Inhibition zone (mm): - | V10A: Inhibition zone (mm): 7.6 | G11A: Inhibition zone (mm): - | H12A: Inhibition zone (mm): 12.7 | S13A: Inhibition zone (mm): 19.8 | N14A: Inhibition zone (mm): - | V15A: Inhibition zone (mm): 20.7 | I16A: Inhibition zone (mm): 24.0 | K17A: Inhibition zone (mm): 10.4 | P18A: Inhibition zone (mm): 29.6 | V15A/I16A: Inhibition zone (mm): 29.3 | Y6F: Inhibition zone (mm): 30.7 | Y6W: Inhibition zone (mm): 22.8 | R7K: Inhibition zone (mm): 26.5 | W9Y: Inhibition zone (mm): 14.9 | K17R: Inhibition zone (mm): 31.1
Antimicrobial activity of lariatins against M. smegmatis 607 was measured by a paper disk method. The cell suspension of M. smegmatis 607 was adjusted to approximately 1.5 × 10^8 CFU ml^−1 in a Middlebrook 7H9 broth (Difco, Becton Dickinson, Sparks, MD, USA) containing 0.05% Tween 80 and 10% ADC enrichment (5.0% bovine albumin fraction V, 2.0% dextrose and catalase (30 μg/ml)), and were spread on a Middlebrook 7H9 agar plate. A paper disk (6 ϕ mm, Advantec Toyo Kaisha, Ltd. Tokyo, Japan) containing 1 μg lariatin variants was placed on the agar plate and was incubated at 37 °C for 48 hr. A diameter (mm) of the inhibitory zone observed around the paper disk was measured to evaluate the anti-mycobacterial activity.

As to “V15A: lariatin A variant, alanine substitution at position 15 (GSQLVYREWVGHSNAIKP; lactam N-8 (inferred); not fully specified; ends not checked; UniProt H7C8I3 27-44, looked up, variant V15A)”, the Inhibition zone amounted to 20.7 mm.

Take “P18A: lariatin A variant, alanine substitution at position 18 (GSQLVYREWVGHSNVIKA; lactam N-8 (inferred); not fully specified; ends not checked; UniProt H7C8I3 27-44, looked up, variant P18A)”: the “Anti-mycobacterial activity compared with lariatin A (in words)” value is listed as “more potent activity than lariatin A” and the Inhibition zone worked out at 29.6 mm. For “K17A: lariatin A variant, alanine substitution at position 17 (GSQLVYREWVGHSNVIAP; lactam N-8 (inferred); not fully specified; ends not checked; UniProt H7C8I3 27-44, looked up, variant K17A)” the same measures were “weaker activity” and 10.4 mm. Consider “H12A: lariatin A variant, alanine substitution at position 12 (GSQLVYREWVGASNVIKP; lactam N-8 (inferred); not fully specified; ends not checked; UniProt H7C8I3 27-44, looked up, variant H12A)”, for which the Inhibition zone was found to be 12.7 mm.

“S13A: lariatin A variant, alanine substitution at position 13 (GSQLVYREWVGHANVIKP; lactam N-8 (inferred); not fully specified; ends not checked; UniProt H7C8I3 27-44, looked up, variant S13A)” displayed an Inhibition zone of 19.8 mm. The substance “Y6F: lariatin A variant, Tyr6 replaced with phenylalanine (GSQLVFREWVGHSNVIKP; lactam N-8 (inferred); ends not checked; UniProt H7C8I3 27-44, looked up, variant Y6F)” had an Inhibition zone of 30.7 mm. Same read-out and setting: as for “Lariatin A (GSQLVYREWVGHSNVIKP; lactam N-8 (inferred); ends not checked; UniProt H7C8I3 27-44, looked up) [18-residue lasso peptide from Rhodococcus jostii K01-B0171, macrolactam ring between Gly1 and Glu8, C-terminal tail threaded through ring]”, the figure is 21.8 mm.
